In paper PMC6600241, “Identification and Structure-Activity Studies of 1,3-Dibenzyl-2-aryl imidazolidines as Novel Hsp90 Inhibitors” (Molecules, 2019):
Where two headings read alike, the source gives them in different places.

Columns and labels:
MCF-7 cells = experiment: MTT anti-proliferative assay on MCF-7 cells; type: cell-based, human
Description: (§1) The anti-proliferative activity of compounds was determined by MTT (3-[4,5-dimethylthiazole-2-yl]-2,5-diphenyltetrazolium bromide) assay on MCF-7 and A549 cell lines, respectively. Cells were purchased from the Institute of Basic Medical Science, Chinese Academy of Medical Science (Beijing, China). Cells were maintained in RPMI-1640 with 10% fetal bovine serum (FBS) and 1% Penicillin-Streptomycin Solution (PS) and cultured at 37 °C in a humidified atmosphere containing 5% CO2. Compounds to be evaluated were dissolved in DMSO (dimethyl sulfoxide), diluted in RPMI-1640, and stored at −20 °C before use. Cells were seeded in 96-well plates at a density of 5000 cells/well (200 μL) and incubated overnight. Culture medium was replaced with fresh RPMI (Roswell Park Memorial Institute)-1640 containing compounds in different concentrations (100 μM–50 μM–25 μM–12.5 μM–6.25 μM–3.125 μM). Then, cells were incubated in a 5% CO2 incubator for 48 h. The 20 μL MTT solution (5 mg/mL) was added to each well and incubated at 37 °C. After 4 h, the medium was removed and formazan crystals were dissolved in 100 μL DMSO. Absorbance was measured at a wavelength of 490 nm using Synergy H1 (BioTek Instruments, Inc., Winooski, VT, USA). IC50 values were calculated by GraphPad Prism 5 (GraphPad Software, Inc., San Diego, CA, USA).

A549 cells = experiment: MTT anti-proliferative assay on A549 cells; type: cell-based, human; settings: mean ± SD, three experiments
Description: as §1

Hsp90 = experiment: Western blotting, Hsp90 expression in MCF-7 cells; type: cell-based, human; settings: 24 h; for expression of Hsp90: MCF-7 cells, compound at IC50 concentration
Description: (§2) Primary antibodies against Hsp70, Hsp90, Her2, and GAPDH were bought from Abcam (Cambridge, MA, USA). HRP (horseradish peroxidase) labeled anti-rabbit immunoglobulin G (H + L) secondary antibody was purchased from Abbkine (Redlands, CA, USA). MCF-7 cells were cultured as described above to a density of 10^6 cells per dish. […] Cells were washed with cold phosphate buffered saline (PBS, pH = 7.4) three times and lysed in radio immunoprecipitation assay (RIPA) lysate (containing 1% phenylmethanesulfonyl fluoride (PMSF)) on ice for 45 min. The lysates were collected and clarified at 12,000× g for 20 min at 4 °C using high speed refrigerated centrifuge. Protein concentration was determined by the bicinchoninic acid (BCA) protein assay kit. The protein sample (20 µg) was electrophoresed using 8% SDS-PAGE (sodium dodecyl sulfate- polyacrylamide gel electrophoresis), transferred to poly(vinylidene fluoride) (PVDF) membranes, and then blocked for 1 h in 5% skim milk in TBST (20 mM Tris-HCl pH 7.4, 100 mM NaCl, and 0.1% Tween 20). The membranes were immunoblotted with primary antibodies for 2 h at room temperature. After incubation with an HRP anti-rabbit IgG (H + L) (1:100,000) as a secondary antibody, the bands were detected using the ECL^TM Prime Western Blotting Detection System (ProteinSimple, San Jose, CA, USA). The density of proteins was determined using the AlphaView SA (Alpha Innotech Corp., version 3.4.0.0, San Leandro, CA, USA).

Her2 = experiment: Western blotting, Her2 expression in MCF-7 cells; type: cell-based, human; settings: 24 h
Description: as §2

Hsp70 = experiment: Western blotting, Hsp70 expression in MCF-7 cells; type: cell-based, human; settings: 24 h; for expression of Hsp70: MCF-7 cells, compound at IC50 concentration
Description: as §2

human Hsp90α = biological target: T1, human Hsp90α (Homo sapiens, UniProt P07900); experiment: Fluorescence polarization (FP) competitive binding assay, Hsp90α N-Terminal Domain Assay Kit; settings: FITC-labeled geldanamycin competition, mean ± SD, three experiments
T1 construct: FP assay using Hsp90α N-Terminal Domain Assay Kit (BPS Bioscience, Catalog #50293, CA, USA); purchased BPS Bioscience 50293
Description: In brief, the Hsp90 assay buffer (15 μL), 40 mM dithiothreitol (DTT) (5 μL), 2 mg/mL BSA (5 μL), and H2O (40 μL) were added to the plate. To each well, 100 nM fluorescein isothiocyanate (FITC)-labeled geldanamycin (5 μL) and diluted compounds in different concentrations (0.5, 5, 50, 500 μM, 10 μL) were added in an orderly manner. The reactions were initiated by adding 20 μL of Hsp90α (17 ng/μL). […] The data were analyzed using GraphPad Prism 5 (GraphPad Software, Inc.).

[1] = Homo sapiens, MCF7, Figure 3, mean ± SD, n = 3, read-out: anti-proliferative activity against MCF-7 cells (IC50), top 21 molecules from virtual screening
[2] = Homo sapiens, MCF7, MTT, 48-h post treatment, mean ± SD, three experiments, read-out: IC50 MCF-7
[3] = Homo sapiens, A549, 48-h post treatment
[4] = MCF-7 cells, compound at IC50 concentration
[5] = MCF-7 cells, 0, 5, 10, 20 and 40 µM

Compound | IC50 (MCF-7 cells; [2]) [µM] | IC50 (A549 cells; [3]) [µM] | other results
1,3-dibenzyl-2-(3-bromo-5-thiazolyl)-imidazolidine [Compound 4k] | – | – | IC50 (MCF-7 cells; MTT, 48-h post treatment, mean ± SD, three experiments, read-out: IC50 MCF-7): 77.01 ± 0.01 µM; IC50 (A549 cells; 48-h post treatment): 498.8 ± 0.25 µM
COc1ccc(-c2nnc(SCC(=O)N3CCOCC3)n2Cc2ccccc2)cc1 [Compound 1b] | – | – | IC50 (MCF-7 cells; [1]): 133.6 ± 1.13 µM
CCOC(=O)c1nnn(Cc2ccccc2Cl)c1NC(=O)CN1CCC(C)CC1 [Compound 1c] | – | – | IC50 (MCF-7 cells; [1]): 134 ± 0.42 µM
NC(=O)c1nnn(Cc2ccccc2)c1NC(=O)CSc1nnc(-c2ccco2)o1 [Compound 1d] | – | – | IC50 (MCF-7 cells; [1]): 243.3 ± 0.99 µM
O=C(Cn1c(-c2ccccn2)nc2ccccc21)NCCc1ccccc1 [Compound 2a] | – | – | IC50 (MCF-7 cells; [1]): 190.6 ± 1.41 µM
O=C(Cn1c(-c2ccccn2)nc2ccccc21)NCCCN1CCOCC1 [Compound 2b] | – | – | IC50 (MCF-7 cells; [1]): 310.5 ± 0.71 µM
COc1ccc(C(=O)/C=C/Nc2ccc(S(=O)(=O)Nc3ccc(OC)nn3)cc2)cc1 [Compound 3a] | – | – | IC50 (MCF-7 cells; [1]): 29.2 ± 0.34 µM
Cc1cc(NC(=O)CCS(=O)(=O)c2nc(-c3ccc4c(c3)OCO4)cc(C(F)(F)F)n2)no1 [Compound 3b] | – | – | IC50 (MCF-7 cells; [1]): 32.4 ± 0.55 µM
O=S(=O)(c1ccccc1)c1nc(-c2ccc(Cl)cc2)oc1NCCCN1CCOCC1 [Compound 3d] | – | – | IC50 (MCF-7 cells; [1]): 70.34 ± 0.2 µM
O=S(=O)(c1ccccc1)c1nc(-c2ccco2)oc1NCc1ccc(F)cc1 [Compound 3e] | – | – | IC50 (MCF-7 cells; [1]): 238 ± 0.71 µM
O=[N+]([O-])c1ccc(C2N(Cc3ccccc3)CCN2Cc2ccccc2)s1 [Compound 4a] | 21.6 ± 0.57 | 31.22 ± 0.31 | expression of Hsp90 (Hsp90): slightly increased; expression level of Her2 (Her2; [4]): significantly down-regulated; expression level of Her2 down-regulated to (Her2; [4]): 48%; expression of Hsp70 (Hsp70): significantly induced; IC50 (human Hsp90α): 0.012 ± 0.01 µM
Cc1ccc(O)c(C2N(Cc3ccccc3)CCN2Cc2ccccc2)c1 [Compound 4b] | 50.62 ± 0.26 | 88.58 ± 0.08 | expression of Hsp90 (Hsp90): slightly increased; expression level of Her2 (Her2; [4]): significantly down-regulated; expression of Hsp70 (Hsp70): significantly induced; IC50 (human Hsp90α): 0.612 ± 0.014 µM
c1ccc(CN2CCN(Cc3ccccc3)C2c2cccs2)cc1 [Compound 4c, 1,3-dibenzyl-2-thiophene-imidazolidine] | 80.04 ± 0.63 | 78.18 ± 0.15 | –
Clc1ccc(C2N(Cc3ccccc3)CCN2Cc2ccccc2)s1 [Compound 4d, 1,3-dibenzyl-2-(5-chlorothiophene)-imidazolidine] | 68.35 ± 0.44 | 56.3 ± 1.27 | IC50 (human Hsp90α): 0.672 ± 0.01 µM
Cc1ccc(C2N(Cc3ccccc3)CCN2Cc2ccccc2)s1 [Compound 4e, 1,3-dibenzyl-2-(5-Methylthiophene)-imidazolidine] | 119.3 ± 0.42 | 113 ± 1.41 | –
c1ccc(CN2CCN(Cc3ccccc3)C2c2cc3ccccc3s2)cc1 [Compound 4f, 1,3-dibenzyl-2-(1-benzothiophene)-imidazolidine] | 219.4 ± 0.57 | 136 ± 1.41 | –

Compound | IC50 (MCF-7 cells; [2]) [µM] | IC50 (A549 cells; [3]) [µM] | other results
O=[N+]([O-])c1ccccc1C1N(Cc2ccccc2)CCN1Cc1ccccc1 [Compound 4g, 1,3-dibenzyl-2-(2-nitro-phenyl)-imidazolidine] | 40.91 ± 0.05 | 40.6 ± 0.51 | –
O=[N+]([O-])c1ccc(C2N(Cc3ccccc3)CCN2Cc2ccccc2)cc1 [Compound 4h, 1,3-dibenzyl-2-(4-nitro-phenyl)-imidazolidine] | 117.7 ± 0.01 | 55.6 ± 0.49 | –
Fc1ccc(Cl)cc1C1N(Cc2ccccc2)CCN1Cc1ccccc1 [Compound 4i, 1,3-dibenzyl-2-(5-chloro-2-fluoro-phenyl)-imidazolidine] | 27.86 ± 0.01 | 59.3 ± 0.83 | IC50 (human Hsp90α): 0.61 ± 0.014 µM
Clc1ncc(C2N(Cc3ccccc3)CCN2Cc2ccccc2)s1 [Compound 4j, 1,3-dibenzyl-2-(2-chloro-5-thiazolyl)-imidazolidine] | 33.12 ± 0.23 | 35.3 ± 0.14 | expression level of Hsp90 regulated (Hsp90; [5]): concentration-dependent manner; expression level of Her2 regulated (Her2; [5]): concentration-dependent manner; expression level of Hsp70 regulated (Hsp70; [5]): concentration-dependent manner; IC50 (human Hsp90α): 0.31 ± 0.014 µM
Clc1ccc(C2N(Cc3ccccc3)CCN2Cc2ccccc2)c(Cl)n1 [Compound 4n] | 40.4 ± 0.51 | 52.11 ± 0.5 | IC50 (human Hsp90α): 0.102 ± 0.01 µM
Brc1cncc(C2N(Cc3ccccc3)CCN2Cc2ccccc2)c1 [Compound 4p] | 45.2 ± 0.63 | 72.87 ± 0.66 | –
c1ccc(CN2CCN(Cc3ccccc3)C2c2cncnc2)cc1 [Compound 4r] | 51.4 ± 0.54 | 80.8 ± 1 | –
c1ccc(N2CCN(c3ccccc3)C2c2ccco2)cc1 [Compound 6a] | 40.77 ± 0.39 | 123.4 ± 0.85 | –
Clc1ncc(C2N(c3ccccc3)CCN2c2ccccc2)s1 [Compound 6b] | 161.6 ± 0.57 | 172 ± 1.41 | –
Fc1ccc(Cl)cc1C1N(c2ccccc2)CCN1c1ccccc1 [Compound 6c] | 43.7 ± 1.03 | 46.14 ± 0.2 | IC50 (human Hsp90α): 1.93 ± 0.013 µM
Clc1ccc(C2N(c3ccccc3)CCN2c2ccccc2)c(Cl)n1 [Compound 6d] | 323 ± 2.28 | 248.6 ± 0.57 | –
CCN1CCN(CC)C1c1ccnc(Cl)c1 [Compound 7a] | > 500 | 250.1 ± 1.27 | –
CCN1CCN(CC)C1c1cc(Cl)ccc1F [Compound 7b] | 158.9 ± 0.14 | 164 ± 1.41 | –
CN1CCN(C)C1c1cc(Cl)ccc1F [Compound 8a] | 250.1 ± 0.27 | 149 ± 1.56 | –
C=CCNC1=C2CC(C)CC(OC)C(O)C(C)C=C(C)C(OC(N)=O)C(OC)C=CC=C(C)C(=O)NC(=CC1=O)C2=O (stereo not shown) [Compound 17-AAG, reference compound] | 7.18 ± 0.13 | 3.54 ± 0.08 | –
